# Data reported in patent publication US20230398115A1, “MDM2 INHIBITORS AND COMBINATIONS THEREOF” (Novartis AG, priority 2015, published 2023).
# How the values were obtained:
# HCT-116 xenografts = assay: HCT-116 xenograft in nude mice, tumor volume; assay type: in vivo; details: for effect of sequential addition on tumor volume: day 19
# Procedure: All animal experiments were done in strict adherence to the Swiss law for animal protection. Female Crl:NU(NCr)-Foxn1nu mice were purchased from Charles River Laboratories International Inc (Germany) and kept in a pathogen-controlled environment. Subcutaneous tumors of HCT-116 (KRAS mutant, PIK3CA mutant, p53 wild-type) were induced by concentrating 3 million cells in 100 μl of PBS and injecting them in the right flank of nude mice. The mice were randomly grouped, and treatment was started when the tumor size reached 50 to 250 mm3. Each cohort included 8 mice. Tumor sizes were monitored three times weekly, and volumes were calculated with the following formula: (mm3)=length×width2×0.5.
# COMPOUND A was dissolved in 0.5% hydroxypropyl methylcellulose, COMPOUND B was dissolved in 1% carboxymethylcellulose containing 0.5% Tween-80% in distilled water (pH7.6-8.0), and COMPOUND C was dissolved in Microemulsion pre-concentrate 5. All drugs were dosed orally using 5-10 ml/kg. COMPOUND A was administered three times a week (3qw) at 100 mg/kg. COMPOUND B and COMPOUND C were administered daily (q24 h) at 0.3 and 100 mg/kg, respectively. The combination dosing schedule and dosage were the same as the single reagents.
# Six treatment cohorts (G1-G6) were tested: • G1: vehicle (DMSO) • G2: COMPOUND C • G3: COMPOUND A=>after 9 days treatment COMPOUND C was added • G4: COMPOUND B=>after 9 days treatment COMPOUND C was added • G5: COMPOUND A+COMPOUND B=>after 9 days treatment COMPOUND C was added • G6: COMPOUND A+COMPOUND B+COMPOUND C
# For each tumor at each time-point the size was normalized to the size before the start of the treatment to obtain the “% Change tumor volume” (FIG. 17-18, y-axis). For FIG. 17 at each time point the mean size of all tumors per cohort was calculated, and the error of the size using the standard error of the mean (SEM). For FIG. 18 p-values were calculated using a one-tailed t test.
# RKO [1] = assay: Cell proliferation, cell count by microscopy, HSA synergy (Examples 2-9); assay type: cell-based; details: 72 h, cell count relative to DMSO
# Procedure: (§1) After 24 h one 384-well plate per cell line was prepared for cell counting by microscopy (see below) without receiving treatment (=‘baseline’). The other cell plates were treated by transferring 25 nl of the 2000× compound from drug master plates using an ATS acoustic liquid dispenser (ECD Biosystems) and resulting in a final 1× concentration. COMPOUND A was used over a final concentration range of 13 nM-10 µM, COMPOUND B was used over a final concentration range of 13 nM-10 uM, and COMPOUND C was used over a final concentration range of 0.4 nM-0.3 µM (7 1:3 dilution steps). In order to assess the effect of the triple combination all individual COMPOUNDS (A, B, C), all three pair wise combinations (A+B, A+C, B+C), and the triple combination (A+B+C) were tested in the same experiment. Pair wise combinations and the triple combination were tested at a fixed ratio of 1:1 (for drug pairs) and 1:1:1 (for the drug triple) at each dilution resulting in 7 combination conditions per treatment. […] After compound addition 50 nl of 2 mM CellEvent Caspase-3/7 Green Detection Reagent (ThermoFisher, Catalog number C10423) were added to one of the three replicates using the HP D300 Digital Dispenser (Tecan). Caspase 3/7 induction was measured as a proxy for apoptosis induced by the treatments. Cells were treated for 72 h to 96 h depending on their doubling time (Table 4), and Caspase 3/7 activation was measured every 24 h by microscopy using an InCell Analyzer 2000 (GE Healthcare) equipped with a 4× objective and FITC excitation/emission filters. At the end of the treatment cells were prepared for cell counting by microscopy. Cells were fixed and permeabilised for 45 minutes in 4% PFA (Electron Microscopy Sciences, Catalog number 15714), 0.12% TX-100 (Electron Microscopy Sciences, Catalog number 22140) in PBS (Boston Bioproducts, Catalog number BM-220). After washing cells three times with PBS their DNA was stained for 30 minutes with Hoechst 33342 (ThermoFisher, Catalog number H3570) at a final concentration of 4 μg/ml. Cells were washed three times with PBS and then plates were heat-sealed using a PlateLoc (Agilent Technologies) with aluminum seals (Agilent Technologies, Catalog number 06644-001) and stored at 4° C. until imaging. All cells per well/treatment were captured in a single image by fluorescence microscopy using an InCell Analyzer 2000 (GE Healthcare) equipped with a 4× objective and DAPI excitation/emission filters.
# (§2) Images were analyzed after adapting previously described methods (Horn, Sandmann et al. 2011) and using the Bioconductor package EBimage in R (Pau, Fuchs et al. 2010). Objects in both channels, DAPI (for Hoechst/DNA) and FITC (for Caspase 3/7), were segmented separately by adaptive thresholding and counted. A threshold for Caspase 3/7 positive objects was defined manually per cell line after comparing negative controls (DMSO) and positive controls (Staurosporine). By analyzing 17 additional object/nuclei features in the DNA channel (shape and intensity features) debris/fragmented nuclei were identified. To this end per cell line the distributions of the additional features between positive controls (Staurosporine) and negative controls (DMSO) were compared manually. Features that could differentiate between the conditions (e.g. a shift in the distribution of a feature measurement comparing DMSO with Staurosporine) where used to define the ‘debris’ population versus the population of ‘viable’ nuclei. The debris counts were subtracted from raw nuclei counts. The resulting nuclei number was used as measure of cell proliferation (‘cell count’).
# (§3) The compound's effect on cell proliferation was calculated from the cell counts of the treatments relative to the cell counts of the negative control (DMSO), in FIG. 9 denoted as ‘Normalized cell count’ (=‘xnorm’) on the y-axis. Synergistic combinations were identified using the highest single agent model (HSA) as null hypothesis (Berenbaum 1989).
# HCT-116 = assay: as above; assay type: cell-based; details: 72 h, cell count relative to DMSO
# Procedure: as §1, §2, §3
# LS-180 [2] = assay: as above; assay type: cell-based; details: 72 h, cell count relative to DMSO
# Procedure: as §1, §2, §3
# GP2d [3] = assay: as above; assay type: cell-based; details: Example 2, single agent, 72 h, cell count relative to DMSO
# Procedure: as §1, §2, §3
# LoVo [4] = assay: as above; assay type: cell-based; details: Example 2, single agent, 96 h, cell count relative to DMSO
# Procedure: as §1, §2, §3
# SW48 = assay: Cell proliferation, cell count by microscopy (Example 1); assay type: cell-based; details: single agent, 96 h treatment, cell count relative to DMSO
# Procedure: (§4) To test the effect of the combination of COMPOUND A or COMPOUND B with COMPOUND C on cell proliferation cells were plated in black 384-well microplates with clear bottom (Matrix/Thermo Scientific, Catalog number 4332) in 50 ul media per well at cell densities between 500 and 1250 cells/well (Table 1) and allowed to incubate at 37 degrees, 5% CO2 for 24 h. After 24 h one 384-well plate per cell line was prepared for cell counting by microscopy (see below) without receiving treatment (=‘baseline’). The other cell plates were treated using a HP D300 Digital Dispenser (Tecan) generating 6-point dose response curves with 2.5× dilution steps.
# (§5) COMPOUND A was used over a final concentration range of 51 nM-5 uM, COMPOUND B over a final concentration range of 10 nM-1 uM, and COMPOUND C over a final concentration range of 1 nM-100 nM.
# (§6) For the combinations of COMPOUND A or COMPOUND B with COMPOUND C the single agents were combined at 6 single agent doses generating a dose matrix of 6×6=36 combination treatments. Additionally, negative controls (DMSO=‘vehicle’) and positive controls (Staurosporine=killing cells, 7-point 1:2 dilution series for a dose range of 16 nm-1 uM) were transferred as treatment controls. Cells were treated for 72 h to 96 h depending on their doubling time (Table 1). At the end of the treatment cells were prepared for cell counting by microscopy. Cells were fixed and permeabilised for 45 minutes in 4% PFA (Electron Microscopy Sciences, Catalog number 15714), 0.12% TX-100 (Electron Microscopy Sciences, Catalog number 22140) in PBS (Boston Bioproducts, Catalog number BM-220). After washing cells three times with PBS their DNA was stained for 30 minutes with Hoechst 33342 (ThermoFisher, Catalog number H3570) at a final concentration of 4 μg/ml. Cells were washed three times with PBS and then plates were heat-sealed using a PlateLoc (Agilent Technologies) with aluminum seals (Agilent Technologies, Catalog number 06644-001) and stored at 4° C. until imaging. All cells per well/treatment were captured in a single image by fluorescence microscopy using an InCell Analyzer 2000 (GE Healthcare) equipped with a 4× objective and DAPI excitation/emission filters.
# as §2
# (§7) The compound's effect on cell proliferation was calculated from the cell counts of the treatments relative to the cell counts of the negative control (DMSO), in FIGS. 1 and 2 denoted as ‘Normalized cell count’ on the y-axis.
# RKO [5] = assay: as above; assay type: cell-based; details: single agent, 72 h treatment, cell count relative to DMSO
# Procedure: as §4, §5, §6, §2, §7
# COLO-678 = assay: as above; assay type: cell-based; details: colo678, single agent, 96 h treatment, cell count relative to DMSO
# Procedure: as §4, §5, §6, §2, §7
# LS-180 [6] = assay: as above; assay type: cell-based; details: ls180, single agent, 72 h treatment, cell count relative to DMSO
# Procedure: as §4, §5, §6, §2, §7
# GP2d [7] = assay: as above; assay type: cell-based; details: single agent, 72 h treatment, cell count relative to DMSO
# Procedure: as §4, §5, §6, §2, §7
# LoVo [8] = assay: as above; assay type: cell-based; details: single agent, 96 h treatment, cell count relative to DMSO
# Procedure: as §4, §5, §6, §2, §7
# LIM2405 = assay: as above; assay type: cell-based; details: single agent, 72 h treatment, cell count relative to DMSO
# Procedure: as §4, §5, §6, §2, §7
smiles,measurement,setting,value
CC1(C)CCC(c2ccc(Cl)cc2)=C(CN2CCN(c3ccc(C(=O)NS(=O)(=O)c4ccc(N[C@H](CCN5CCOCC5)CSc5ccccc5)c(S(=O)(=O)C(F)(F)F)c4)cc3)CC2)C1 [ABT-263],effect of sequential addition on tumor volume,HCT-116 xenografts; ABT-263 100 mg/kg q24h added after 9 days to single agent COMPOUND A (G3),no additional benefit
same,effect of sequential addition on tumor volume,HCT-116 xenografts; ABT-263 100 mg/kg q24h added after 9 days to single agent trametinib (G4),stopped tumor progression
same,effect of sequential addition on tumor volume,HCT-116 xenografts; ABT-263 100 mg/kg q24h added after 9 days to the combination of COMPOUND A and trametinib (G5),marked tumor regressions
CC1(C)CCC(c2ccc(Cl)cc2)=C(CN2CCN(c3ccc(C(=O)NS(=O)(=O)c4ccc(N[C@H](CCN5CCOCC5)CSc5ccccc5)c(S(=O)(=O)C(F)(F)F)c4)cc3)CC2)C1 [COMPOUND C],IC50,"RKO [1]; Example 2, single agent",> 10 µM
same,IC50,"RKO [1]; Example 3, single agent",> 10 µM
same,IC50,"RKO [1]; Example 4, single agent",> 10 µM
same,IC50,"HCT-116; Example 2, single agent",> 10 µM
same,IC50,"HCT-116; Example 3, single agent",> 10 µM
same,IC50,"HCT-116; Example 4, single agent",> 10 µM
same,IC50,"LS-180 [2]; Example 2, single agent",> 10 µM
same,IC50,"LS-180 [2]; Example 3, single agent",> 10 µM
same,IC50,"LS-180 [2]; Example 4, single agent",> 10 µM
same,IC50,GP2d [3],> 10 µM
same,IC50,LoVo [4],> 10 µM
"CC(=O)Nc1cccc(-n2c(=O)n(C3CC3)c(=O)c3c(Nc4ccc(I)cc4F)n(C)c(=O)c(C)c32)c1 [trametinib, N-(3-{3-cyclopropyl-5-[(2-fluoro-4-iodophenyl)amino]-6,8-dimethyl-2,4,7-trioxo-3,4,6,7-tetrahydropyrido[4,3-d]pyrimidin-1(2H)-yl}phenyl)acetamide]",IC75,SW48,0.003
same,IC75,RKO [5],>0.1
same,IC75,COLO-678,>0.1
same,IC75,LS-180 [6],0.014
same,IC75,GP2d [7],>0.1
same,IC75,LoVo [8],0.018
same,IC75,LIM2405,0.008
same,tumor response (% change tumor volume),"HCT-116 xenografts; nude mice, oral, COMPOUND A 100 mg/kg 3qw, trametinib 0.3 mg/kg q24h, ABT-263 100 mg/kg q24h, 9 days of treatment",progressive disease
